Experimental data reported in patent US10519143B2, “Substituted-indole-compounds as estrogen receptor down-regulators” (LUOXIN PHARMACEUTICAL (SHANGHAI) CO., LTD, priority 2016, dated 2019).
Like-named read-outs stand apart in the source and are kept apart here.

Legend:
[1] = prior art statement; cited from earlier work
[2] = tested on: breast cancer; conditions: intramuscular injection, prior art statement; cited from earlier work
[3] = in vivo PK properties (cassette PK); conditions: plasma; for AUC(0-t): read-out: AUC0-last (nm/hr); for Vd: read-out: Vdss
[4] = tested on: MCF-7 breast cancer cell xenograft; assay: antitumor activity on MCF-7 breast cancer cell xenograft model; assay type: in vivo, BALB/c nude mice; conditions: for T/C (%) / TGI (%) / tumor volumn (mm^3) 17th day after grouping: oral, once a day, ARN-810 10/30 mg/kg, I-1 30 mg/kg; for T/C (%) / TGI (%): 17th day after grouping; for tumor volumn (mm^3) 17th day after grouping: Mean ± SEM
Experimental: Mice were inoculated subcutaneously with 0.36 mg estrogen sustained release tablet (60 days release) on the left shoulder three days before inoculation. When cells were in the logarithmic growth phase, cells were harvested, counted and adjusted to 10×10^7 cells/mL, then an equal volume of Matrigel was added, mixing for inoculation. 0.2 mL MCF-7 tumor cell suspension (10×10^6) was inoculated subcutaneously into the right shoulder of each mouse. On the 7th day after tumor cell inoculation, mice were grouped and administrated once a day, with an average tumor volume of 169 mm^3 and a body weight of 23.33 g. Tumor volume and body weight were measured twice a week after grouping, and the tumor growth rate (T/C) and tumor growth inhibition rate (TGI) were calculated based on the last measuring data on the 17th day after grouping.

[5] = drug distribution in tissues (plasma, tumor, brain); assay type: in vivo, mice; conditions: for AUC0-last (nmol · h/kg) brain / AUC0-last (nmol · h/kg) plasma / AUC0-last (nmol · h/kg) tumor: dose 67.3 μmol/kg, 20th day after grouping
Experimental: On the 20th day after grouping, the sample was collected from plasma, tumor, breast and brain of the mice at four time points (2-3 mice each time point) which was respectively 0.5 hour, 1.5 hours, 6 hours and 24 hours after administration. The blood (0.5 mL) was collected using a 1.5 mL EDTA-K2 anticoagulation tube, immediately centrifuged at 4000 rpm, 4° C. for 10 minutes to prepare plasma, the plasma sample was stored at −80° C. for determination of drug concentration. The tumor was collected using a 2 mL cryotube, and the brain was collected using a 5 mL cryotube, the samples were immediately put into liquid nitrogen for quike freeze. All samples were stored at −80° C. for determination of drug concentration after sampling. The result was converted based on corresponding AUC to compare the drug distribution.

[6] = tested on: MCF-7 cells; assay: MCF-7 cell proliferation inhibition assay; assay type: cell-based; conditions: Homo sapiens, MCF7, 144 h; MCF-7 cells, 6 days incubation, CellTiter-Glo; read-out: anti-proliferation in MCF-7 cells
Experimental: Experimental Reagent: RPMI 1640 medium, fetal bovine serum, Promega CellTiter-Glo reagent. The cell line MCF-7 was purchased from The European Collection of Authenticated Cell Cultures (ECACC). Envision Multilabel Reader (PerkinElmer). Experimental Method: […] The cell plate was placed in a carbon dioxide incubator overnight. […] The cell plate was incubated in a carbon dioxide incubator for 6 days. Promega CellTiter-Glo reagent was added to the cell plate at 25 μL per well, cells were incubated for 10 minutes at room temperature to stabilize the luminescence signal, which was measured using PerkinElmer Envision Multilabel Reader. Data Analysis: […] (Model 205 in XLFIT5, iDBS)

[7] = plasma protein binding rate (Human); assay type: in vitro ADME
[8] = plasma protein binding rate (CD-1 mouse); assay type: in vitro ADME
[9] = biological target: T1, CYP 1A2 (Homo sapiens, UniProt P05177); assay: inhibition of CYP enzymes 1A2; assay type: in vitro ADME
T1 sequence (P05177 1-516): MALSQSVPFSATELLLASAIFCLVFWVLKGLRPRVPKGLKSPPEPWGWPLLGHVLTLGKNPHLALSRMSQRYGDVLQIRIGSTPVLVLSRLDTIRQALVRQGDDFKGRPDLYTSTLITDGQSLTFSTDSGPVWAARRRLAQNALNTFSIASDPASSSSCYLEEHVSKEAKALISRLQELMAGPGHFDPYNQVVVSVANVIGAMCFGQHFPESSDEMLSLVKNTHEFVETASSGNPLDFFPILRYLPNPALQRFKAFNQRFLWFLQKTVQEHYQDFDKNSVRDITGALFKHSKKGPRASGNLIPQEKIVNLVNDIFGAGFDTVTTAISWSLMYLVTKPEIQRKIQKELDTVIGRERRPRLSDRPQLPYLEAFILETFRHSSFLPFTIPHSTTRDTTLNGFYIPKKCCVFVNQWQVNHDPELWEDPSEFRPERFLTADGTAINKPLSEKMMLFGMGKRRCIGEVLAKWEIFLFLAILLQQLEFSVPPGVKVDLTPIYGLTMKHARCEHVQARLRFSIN

[10] = biological target: CYP 2C9 (Homo sapiens, UniProt P11712); assay: inhibition of CYP enzymes 2C9; assay type: in vitro ADME
Sequence of CYP 2C9 (P11712 whole entry): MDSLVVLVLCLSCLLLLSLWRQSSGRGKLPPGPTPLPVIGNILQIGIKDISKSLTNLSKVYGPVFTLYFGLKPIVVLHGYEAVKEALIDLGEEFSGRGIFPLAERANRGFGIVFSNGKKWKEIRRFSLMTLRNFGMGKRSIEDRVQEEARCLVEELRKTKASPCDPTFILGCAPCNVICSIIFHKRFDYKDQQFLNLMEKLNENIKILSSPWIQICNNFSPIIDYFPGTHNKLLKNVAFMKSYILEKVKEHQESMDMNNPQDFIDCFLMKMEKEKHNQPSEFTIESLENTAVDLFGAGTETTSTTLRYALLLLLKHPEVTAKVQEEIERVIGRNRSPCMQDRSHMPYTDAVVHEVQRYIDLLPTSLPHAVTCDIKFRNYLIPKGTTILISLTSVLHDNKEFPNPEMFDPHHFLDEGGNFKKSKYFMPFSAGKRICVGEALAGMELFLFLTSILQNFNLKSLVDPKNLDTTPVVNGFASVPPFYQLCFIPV

[11] = biological target: CYP 2C19 (Homo sapiens, UniProt P33261); assay: inhibition of CYP enzymes 2C19; assay type: in vitro ADME
Sequence of CYP 2C19 (P33261 whole entry): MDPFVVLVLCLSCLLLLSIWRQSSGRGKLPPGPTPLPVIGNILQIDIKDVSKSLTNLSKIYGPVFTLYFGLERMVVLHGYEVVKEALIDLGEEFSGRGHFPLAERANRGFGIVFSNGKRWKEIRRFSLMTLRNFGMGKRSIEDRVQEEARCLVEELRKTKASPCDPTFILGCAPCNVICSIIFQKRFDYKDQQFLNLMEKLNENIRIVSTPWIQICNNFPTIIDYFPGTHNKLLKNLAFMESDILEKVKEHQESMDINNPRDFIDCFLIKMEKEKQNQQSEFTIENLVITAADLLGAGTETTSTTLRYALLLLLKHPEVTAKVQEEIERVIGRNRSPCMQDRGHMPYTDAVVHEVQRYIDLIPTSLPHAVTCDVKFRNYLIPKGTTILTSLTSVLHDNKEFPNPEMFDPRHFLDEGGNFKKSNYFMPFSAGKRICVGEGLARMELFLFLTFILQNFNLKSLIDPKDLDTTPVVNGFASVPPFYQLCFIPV

[12] = biological target: CYP 2D6 (Homo sapiens, UniProt P10635); assay: inhibition of CYP enzymes 2D6; assay type: in vitro ADME
Sequence of CYP 2D6 (P10635 whole entry): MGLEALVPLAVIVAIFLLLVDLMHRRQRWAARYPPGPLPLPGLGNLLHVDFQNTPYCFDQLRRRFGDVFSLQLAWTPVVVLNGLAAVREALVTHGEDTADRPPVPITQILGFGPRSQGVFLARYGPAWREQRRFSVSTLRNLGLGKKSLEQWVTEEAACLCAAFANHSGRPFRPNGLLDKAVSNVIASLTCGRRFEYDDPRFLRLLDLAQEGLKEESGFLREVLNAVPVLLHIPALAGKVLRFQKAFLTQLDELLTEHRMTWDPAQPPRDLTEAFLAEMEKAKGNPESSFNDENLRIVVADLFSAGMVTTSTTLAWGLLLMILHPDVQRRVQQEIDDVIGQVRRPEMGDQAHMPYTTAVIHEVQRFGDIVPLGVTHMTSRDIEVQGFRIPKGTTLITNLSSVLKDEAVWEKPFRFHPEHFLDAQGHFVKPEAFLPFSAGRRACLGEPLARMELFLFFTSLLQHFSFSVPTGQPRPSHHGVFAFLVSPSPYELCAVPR

[13] = biological target: CYP 3A4 (Homo sapiens, UniProt P08684); assay: inhibition of CYP enzymes 3A4; assay type: in vitro ADME
Sequence of CYP 3A4 (P08684 whole entry): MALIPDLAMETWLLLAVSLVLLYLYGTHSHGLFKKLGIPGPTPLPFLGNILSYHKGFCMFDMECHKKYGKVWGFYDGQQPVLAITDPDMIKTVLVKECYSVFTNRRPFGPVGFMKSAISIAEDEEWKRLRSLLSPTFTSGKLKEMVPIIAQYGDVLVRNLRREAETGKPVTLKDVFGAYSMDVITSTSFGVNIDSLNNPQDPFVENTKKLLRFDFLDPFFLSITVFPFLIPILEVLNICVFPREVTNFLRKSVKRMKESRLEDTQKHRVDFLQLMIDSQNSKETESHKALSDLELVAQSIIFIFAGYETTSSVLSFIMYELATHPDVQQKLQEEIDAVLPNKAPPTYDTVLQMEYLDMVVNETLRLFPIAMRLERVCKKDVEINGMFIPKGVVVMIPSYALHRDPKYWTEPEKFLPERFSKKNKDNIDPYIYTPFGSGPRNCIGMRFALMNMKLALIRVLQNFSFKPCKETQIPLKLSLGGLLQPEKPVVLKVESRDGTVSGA

C0 ([3]; iv, 1 mg/kg, i.V. 1 mpk) | clearance ([3]; iv, 1 mg/kg, i.V. 1 mpk) | half-life ([3]; iv, 1 mg/kg, i.V. 1 mpk) | AUC(0-t) ([3]; iv, 1 mg/kg, i.V. 1 mpk) | Vd ([3]; iv, 1 mg/kg, i.V. 1 mpk) | Cmax ([3]; po, 2.5 mg/kg, P.O 2.5 mpk) | Tmax ([3]; po, 2.5 mg/kg, P.O 2.5 mpk) | bioavailability ([3]; po, 2.5 mg/kg, P.O 2.5 mpk) | half-life ([3]; po, 2.5 mg/kg, P.O 2.5 mpk) | AUC(0-t) ([3]; po, 2.5 mg/kg, P.O 2.5 mpk) | AUC0-last (nmol · h/kg) brain [5] | AUC0-last (nmol · h/kg) plasma [5] | AUC0-last (nmol · h/kg) tumor [5] | Structure (SMILES) | T/C (%) [4] | TGI (%) [4] | tumor volumn (mm^3) 17th day after grouping [4] | other results
 |  |  |  |  |  |  |  |  |  |  |  |  | C[C@]12CC[C@@H]3c4ccc(O)cc4C[C@@H](CCCCCCCCC[S+]([O-])CCCC(F)(F)C(F)(F)F)[C@H]3[C@@H]1CC[C@@H]2O (stereo partly drawn) [fulvestrant] |  |  |  | oral bioavailability [1]: zero; breast cancer patients showing clinical response [2]: about 50%
1640 nM | 18.9 mL/min/kg | 1.35 h | 1.99 µM·h | 1.93 L/kg | 924 nM | 0.417 h | 66% | 3.49 h | 3.28 µM·h | 3490 nmol·h/kg | 33545 nmol·h/kg | 11368 nmol·h/kg | CC/C(=C(/c1ccc(/C=C/C(=O)O)cc1)c1ccc2[nH]ncc2c1)c1ccc(F)cc1Cl [ARN-810, reference compound] | 43.4% | 75.7% | 290 ± 38 mm^3 | 
3480 nM | 3.61 mL/min/kg | 2.81 h | 10.4 µM·h | 0.992 L/kg | 2150 nM | 3.33 h | 70.6% | 3.18 h | 18.3 µM·h | 43167 nmol·h/kg | 118937 nmol·h/kg | 55487 nmol·h/kg | CC/C(=C(/c1ccc(/C=C/C(=O)O)cc1)c1cc2ccccc2[nH]1)c1ccc(F)cc1Cl [Compound I-1] | 30.1% | 93.6% | 201 ± 27 mm^3 | IC50 [6]: 0.0385 µM; fraction unbound [7]: 0.028; fraction unbound [8]: 0.012; IC50 [9]: 25.5 µM; IC50 [10]: 10.1 µM; IC50 [11]: 40.4 µM; IC50 [12]: 43.4 µM; IC50 [13]: 25.1 µM; antitumor activity compared with ARN-810 ([4]; oral I-1 30 mg/kg versus oral ARN-810 10/30 mg/kg): superior; distribution in brain tissue compared with ARN-810 ([5]; brain tissue): much better; distribution in tumor tissue compared with ARN-810 ([5]; tumor tissue): much better
